Tests used:
11β-HSD2 = biological target: T1, 11β-HSD2 (Homo sapiens, UniProt P80365); assay: Cellular assay of 11β-HSD2 activity in HepG2 cells; type: cell-based; conditions: 4 hour pre-incubation, 10^-5M to 10^-10M, read-out: HSD2 cellular HepG2 Score
T1 construct: endogenous in cells; host or cells: HepG2 (ATCC HB-8065)
T1 sequence (P80365 1-405): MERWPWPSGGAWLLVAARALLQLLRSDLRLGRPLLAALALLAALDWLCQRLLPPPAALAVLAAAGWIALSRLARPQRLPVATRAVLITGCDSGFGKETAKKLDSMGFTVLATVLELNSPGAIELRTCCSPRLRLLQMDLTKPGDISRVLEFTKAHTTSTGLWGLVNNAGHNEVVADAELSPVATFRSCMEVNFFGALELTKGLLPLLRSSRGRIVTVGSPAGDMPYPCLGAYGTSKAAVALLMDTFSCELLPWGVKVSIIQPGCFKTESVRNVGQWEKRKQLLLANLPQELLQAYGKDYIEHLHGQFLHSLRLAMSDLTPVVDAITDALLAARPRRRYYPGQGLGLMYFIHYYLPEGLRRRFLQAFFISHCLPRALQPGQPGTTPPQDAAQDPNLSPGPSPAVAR
Procedure: The effects on 11β-HSD2 activity was studied in HepG2 and LCC-PK1-cells HepG2-cells (ATCC HB-8065) were seeded in 12 well plates at a density of 100,000 cells/ml and grown at 37° C. in a humidified 5% CO2 atmosphere in MEM-Rega-3 medium supplemented with 10% heat inactivated foetal calf serum, 2 mM L-glutamine and sodium bicarbonate). Medium was refreshed twice a week.
Following a 4 hour pre-incubation with test compound, 0.5 μCi ^3H-cortisol or corticosterone, was added to the cultures. One hour later, the medium was extracted on Extrelut^3-columns with 15 ml diethyl ether and the extract was analysed by HPLC as described above.
(§1) As for the enzymatic assays, the compounds to be tested were taken from a stock solution and tested at a final concentration ranging from 10^−5M to 10^−10M. From the thus obtained dose response curves, the pIC50 value was calculated and scored as follows; Score 1=pIC50 value<5, Score 2=pIC50 value in the range of 5 to 6, Score 3=pIC50 value>6. (in this table NT stands for Not Tested).

11β-HSD1 = biological target: T2, 11β-HSD1 (Mus musculus, UniProt P50172); assay: Cellular assay of 11β-HSD1 activity in differentiated 3T3-L1 cells; type: cell-based; conditions: 4 hour pre-incubation, 10^-5M to 10^-10M, read-out: HSD1 cellular 3T3-L1 Score
T2 construct: endogenous in cells; host or cells: 3T3-L1 (ATCC-CL-173), differentiated into adipocytes
T2 sequence (P50172 whole entry): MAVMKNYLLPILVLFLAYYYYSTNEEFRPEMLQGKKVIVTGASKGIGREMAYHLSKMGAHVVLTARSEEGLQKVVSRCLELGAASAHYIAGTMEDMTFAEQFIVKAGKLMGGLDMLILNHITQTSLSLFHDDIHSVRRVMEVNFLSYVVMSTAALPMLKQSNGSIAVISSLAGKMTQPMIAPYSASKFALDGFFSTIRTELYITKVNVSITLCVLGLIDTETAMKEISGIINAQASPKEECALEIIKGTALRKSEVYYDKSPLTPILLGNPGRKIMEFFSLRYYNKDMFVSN
Procedure: The effects on 11β-HSD1 activity was measured in differentiated 3T3-L1 cells and rat hepatocytes.
Mouse fibroblast 3T3-L1 cells (ATCC-CL-173) were seeded at a density of 16500 cells/ml in 12 well plates and grown for 7 days in DMEM medium (supplemented with 10% heat inactivated foetal calf serum, 2 mM glutamine and 25 mg gentamycin) at 37° C. in a humidified 5% CO2 atmosphere. Medium was refreshed twice a week. Fibroblasts were differentiated into adipocytes at 37° C. in a 5% CO2 humidified atmosphere in growth medium containing 2 μg/ml insulin, 55 μg/ml IBMX and 39.2 μg/ml dexamethasone.
Primary hepatocytes from male rats were seeded on normal Falcon 12 well plates at a density of 250000 cells/well and incubated for 16 hours at 37° C. in a 5% CO2 humidified atmosphere in DMEM-HAM's F12 medium containing 5% Nu-serum, 100 U/ml penicillin, 100 μg/ml streptomycin, 0.25 μg/ml amphotericin B, 50 μg/ml gentamycin sulfate, 5 μg/ml insulin and 392 ng/ml dexamethasone. Following a 4 hour pre-incubation with test compound, 0.5 μCi ^3H-cortisone or dehydrocorticosterone, was added to the 3T3-L1 cultures. One hour later, the medium was extracted on Extrelut^3-columns with 15 ml diethyl ether and the extract was analysed by HPLC as described above. The effects of JNJ-compounds on rat hepatocyte HSD1 activity was measured after an incubation period of 90 minutes with 0.5 μCi^3H-dehydrocorticosterone. Corticosterone formation was analysed by HPLC.
as §1

SMILES | IC50 (11β-HSD2) [µM] | IC50 (11β-HSD1) [µM]
Cc1ccc(OC(C)(C)C(=O)NC2C3CC4CC2CC(c2ccccc2)(C4)C3)cc1 (stereo not shown) [Compound 49] | > 10 | 1 to 10
O=C(N[C@H]1[C@@H]2CC3C[C@H]1C[C@](O)(C3)C2)C1Cc2ccccc2O1 (stereo partly shown) [Compound 24] | 1 to 10 | < 1
CC(C)(Oc1cccc(C(F)(F)F)c1)C(=O)N[C@H]1[C@@H]2CC3C[C@H]1C[C@](NS(=O)(=O)CC(F)(F)F)(C3)C2 [Compound 88] | 1 to 10 | < 1
Cc1cc(Cl)ccc1OC(C)(C)C(=O)N[C@H]1[C@@H]2CC3C[C@H]1C[C@](N1CCCC1=O)(C3)C2 [Compound 39] | < 1 | < 1
Cc1ccc(NC(C)(C)C(=O)N[C@H]2[C@@H]3CC4C[C@H]2C[C@](F)(C4)C3)cc1 [Compound 62] | > 10 | < 1
O=C(N[C@H]1[C@@H]2CC3C[C@H]1C[C@](O)(C3)C2)[C@H]1CCc2cc(F)ccc2O1 [Compound 21] | < 1 | < 1
Cc1ccc(OC(C)(C)C(=O)N[C@H]2[C@@H]3CC4C[C@H]2C[C@](OC(=O)CN2CCOCC2)(C4)C3)cc1 [Compound 41] | 1 to 10 | < 1
O=C(N[C@H]1[C@@H]2CC3C[C@H]1C[C@](O)(C3)C2)[C@@H]1CCc2cc(F)ccc2O1 [Compound 22] | 1 to 10 | < 1
Cc1ccc(OC(C)(C)C(=O)N[C@H]2[C@@H]3CC4C[C@H]2C[C@](OC(=O)Nc2cccc(C)c2)(C4)C3)cc1 [Compound 47] | 1 to 10 | < 1
CN1CC(C(=O)N[C@@H]2[C@@H]3CC4C[C@H]2C[C@@](O)(C4)C3)Oc2ccccc21 (stereo partly shown) [Compound 6] | > 10 | < 1
Cc1ccc2c(c1)NCC(C(=O)N[C@H]1[C@@H]3CC4C[C@H]1C[C@](O)(C4)C3)O2 (stereo partly shown) [Compound 11] | 1 to 10 | < 1
CC(=O)N[C@@]12CC3C[C@H](C1)[C@H](NC(=O)C(C)(C)Nc1ccc(Br)cc1C)[C@@H](C3)C2 [Compound 74] | 1 to 10 | < 1
Cc1cc(Cl)ccc1OC(C)(C)C(=O)N[C@H]1[C@@H]2CC3C[C@H]1C[C@](NC(=O)CC(C)C)(C3)C2 [Compound 64] | 1 to 10 | < 1
CC(C)(Oc1ccc(Cl)cc1)C(=O)N[C@H]1[C@@H]2CC3C[C@H]1C[C@](NC(=O)CCl)(C3)C2 [Compound 94] | 1 to 10 | < 1
COC(=O)CC(=O)N[C@@]12CC3C[C@H](C1)[C@H](NC(=O)C(C)(C)Oc1ccc(Cl)cc1C)[C@@H](C3)C2 [Compound 38] | 1 to 10 | < 1
CC(=O)N[C@@]12CC3C[C@H](C1)[C@H](NC(=O)C(C)(C)Oc1ccc(Cl)cc1C)[C@@H](C3)C2 [Compound 29] | < 1 | < 1
Cc1cccc(NC(C)(C)C(=O)N[C@H]2[C@@H]3CC4C[C@H]2C[C@](F)(C4)C3)c1 [Compound 57] | > 10 | < 1
Cc1cc(Cl)ccc1OC(C)(C)C(=O)N[C@H]1[C@@H]2CC3C[C@H]1C[C@](NC(=O)CCl)(C3)C2 [Compound 31] | 1 to 10 | < 1
CC(=O)N[C@@]12CC3C[C@H](C1)[C@H](NC(=O)C(C)(C)Nc1ccc(C)cc1)[C@@H](C3)C2 [Compound 37] | > 10 | < 1
Cc1ccc(OC(C)(C)C(=O)N[C@@H]2[C@@H]3CC4C[C@H]2C[C@](OCc2ccccc2)(C4)C3)cc1 [Compound 48] | < 1 | < 1

Next, values leading:

IC50 (11β-HSD2) [µM] | IC50 (11β-HSD1) [µM] | SMILES
< 1 | < 1 | CC(C)(Oc1cccc(C(F)(F)F)c1)C(=O)N[C@H]1[C@@H]2CC3C[C@H]1C[C@](O)(C3)C2 [Compound 20]
1 to 10 | < 1 | CC(C)(Oc1ccccc1)C(=O)N[C@H]1[C@@H]2CC3C[C@H]1C[C@](O)(C3)C2 [Compound 69]
> 10 | < 1 | Cc1cc(Cl)ccc1OC(C)(C)C(=O)N[C@H]1[C@@H]2CC3C[C@H]1C[C@](N(C)C)(C3)C2 [Compound 46]
> 10 | < 1 | COc1cccc(NC(C)(C)C(=O)N[C@H]2[C@@H]3CC4C[C@H]2C[C@](O)(C4)C3)c1 [Compound 53]
1 to 10 | < 1 | COc1cc(OC)cc(OC(C)(C)C(=O)N[C@H]2[C@@H]3CC4C[C@H]2C[C@](O)(C4)C3)c1 [Compound 17]
< 1 | < 1 | CC(C)(C(=O)N[C@H]1[C@@H]2CC3C[C@H]1C[C@](O)(C3)C2)S(=O)(=O)c1ccc(Cl)cc1 [Compound 3]
1 to 10 | < 1 | CN(C)S(=O)(=O)N[C@@]12CC3C[C@H](C1)[C@H](NC(=O)C(C)(C)Oc1cccc(C(F)(F)F)c1)[C@@H](C3)C2 [Compound 92]
> 10 | < 1 | CC(C)(Nc1cccc(C(F)(F)F)c1)C(=O)N[C@H]1[C@@H]2CC3C[C@H]1C[C@](O)(C3)C2 [Compound 60]
< 1 | < 1 | Cc1cc(Cl)ccc1OC(C)(C)C(=O)N[C@H]1[C@@H]2CC3C[C@H]1C[C@](O)(C3)C2 [Compound 1]
1 to 10 | < 1 | COc1cccc(NC(C)(C)C(=O)N[C@H]2[C@@H]3CC4C[C@H]2C[C@](NC(C)=O)(C4)C3)c1 [Compound 66]
1 to 10 | < 1 | CC(C)(Sc1ccc(Cl)cc1)C(=O)N[C@H]1[C@@H]2CC3C[C@H]1C[C@](O)(C3)C2 [Compound 4]
1 to 10 | < 1 | CC(C)(Oc1ccc(Cl)cc1)C(=O)N[C@H]1[C@@H]2CC3C[C@H]1C[C@](O)(C3)C2 [Compound 67]
> 10 | < 1 | COC(=O)c1cccc(NC(C)(C)C(=O)N[C@H]2[C@@H]3CC4C[C@H]2C[C@](O)(C4)C3)c1 [Compound 75]
> 10 | < 1 | CC(C)(Oc1cccc(Br)c1)C(=O)N[C@H]1[C@@H]2CC3C[C@H]1C[C@](N)(C3)C2 [Compound 93]
> 10 | < 1 | CC(C)(Oc1cccc(Cl)c1)C(=O)N[C@H]1[C@@H]2CC3C[C@H]1C[C@](N)(C3)C2 [Compound 85]
> 10 | < 1 | Cc1ccc(NC(C)(C)C(=O)N[C@H]2[C@@H]3CC4C[C@H]2C[C@](O)(C4)C3)cc1 [Compound 27]
> 10 | < 1 | Cc1cccc(NC(C)(C)C(=O)N[C@H]2[C@@H]3CC4C[C@H]2C[C@](O)(C4)C3)c1 [Compound 55]
1 to 10 | < 1 | Cc1cccc(OC(C)(C)C(=O)N[C@H]2[C@@H]3CC4C[C@H]2C[C@](O)(C4)C3)c1 [Compound 10]
1 to 10 | < 1 | Cc1cc(Cl)ccc1OC(C)(C)C(=O)N[C@H]1[C@@H]2CC3C[C@H]1C[C@](C(=O)O)(C3)C2 [Compound 50]
< 1 | < 1 | Cc1ccc(OC(C)(C)C(=O)N[C@H]2[C@@H]3CC4C[C@H]2C[C@](O)(C4)C3)cc1 [Compound 13]
< 1 | < 1 | CN(C)c1cccc(OC(C)(C)C(=O)N[C@H]2[C@@H]3CC4C[C@H]2C[C@](O)(C4)C3)c1 [Compound 18]
< 1 | < 1 | CC(=O)Nc1cccc(OC(C)(C)C(=O)N[C@H]2[C@@H]3CC4C[C@H]2C[C@](O)(C4)C3)c1 [Compound 19]
> 10 | < 1 | CC(C)(Nc1ccccc1)C(=O)N[C@H]1[C@@H]2CC3C[C@H]1C[C@](O)(C3)C2 [Compound 54]
> 10 | < 1 | COc1ccc(NC(C)(C)C(=O)N[C@H]2[C@@H]3CC4C[C@H]2C[C@](O)(C4)C3)cc1 [Compound 58]
